ChEMBL document CHEMBL4507317, “Data for DCP probe BAY-899” (2021)

Columns and labels:
[1] = tested on: Tyrosine-protein kinase ABL1 (Homo sapiens), P00519 [Q252H]; conditions: Compound concentration 1000.0 nM
[2] = target: Calcium/calmodulin-dependent protein kinase type 1B (Homo sapiens) (UniProt Q6P2M8); conditions: Compound concentration 1000.0 nM
[3] = tested on: Tyrosine-protein kinase ABL1 (Homo sapiens), P00519 [F317L]; conditions: Compound concentration 1000.0 nM
[4] = target: Serine/threonine-protein kinase 38-like (Homo sapiens) (UniProt Q9Y2H1); conditions: Compound concentration 1000.0 nM
[5] = tested on: Proto-oncogene tyrosine-protein kinase receptor Ret (Homo sapiens), P07949 [V804L]; conditions: Compound concentration 1000.0 nM
[6] = target: Serine/threonine-protein kinase WNK2 (Homo sapiens) (UniProt Q9Y3S1); conditions: Compound concentration 1000.0 nM
[7] = target: Receptor tyrosine-protein kinase erbB-4 (Homo sapiens) (UniProt Q15303); conditions: Compound concentration 1000.0 nM
Sequence of Receptor tyrosine-protein kinase erbB-4 (Homo sapiens) (Q15303 whole entry): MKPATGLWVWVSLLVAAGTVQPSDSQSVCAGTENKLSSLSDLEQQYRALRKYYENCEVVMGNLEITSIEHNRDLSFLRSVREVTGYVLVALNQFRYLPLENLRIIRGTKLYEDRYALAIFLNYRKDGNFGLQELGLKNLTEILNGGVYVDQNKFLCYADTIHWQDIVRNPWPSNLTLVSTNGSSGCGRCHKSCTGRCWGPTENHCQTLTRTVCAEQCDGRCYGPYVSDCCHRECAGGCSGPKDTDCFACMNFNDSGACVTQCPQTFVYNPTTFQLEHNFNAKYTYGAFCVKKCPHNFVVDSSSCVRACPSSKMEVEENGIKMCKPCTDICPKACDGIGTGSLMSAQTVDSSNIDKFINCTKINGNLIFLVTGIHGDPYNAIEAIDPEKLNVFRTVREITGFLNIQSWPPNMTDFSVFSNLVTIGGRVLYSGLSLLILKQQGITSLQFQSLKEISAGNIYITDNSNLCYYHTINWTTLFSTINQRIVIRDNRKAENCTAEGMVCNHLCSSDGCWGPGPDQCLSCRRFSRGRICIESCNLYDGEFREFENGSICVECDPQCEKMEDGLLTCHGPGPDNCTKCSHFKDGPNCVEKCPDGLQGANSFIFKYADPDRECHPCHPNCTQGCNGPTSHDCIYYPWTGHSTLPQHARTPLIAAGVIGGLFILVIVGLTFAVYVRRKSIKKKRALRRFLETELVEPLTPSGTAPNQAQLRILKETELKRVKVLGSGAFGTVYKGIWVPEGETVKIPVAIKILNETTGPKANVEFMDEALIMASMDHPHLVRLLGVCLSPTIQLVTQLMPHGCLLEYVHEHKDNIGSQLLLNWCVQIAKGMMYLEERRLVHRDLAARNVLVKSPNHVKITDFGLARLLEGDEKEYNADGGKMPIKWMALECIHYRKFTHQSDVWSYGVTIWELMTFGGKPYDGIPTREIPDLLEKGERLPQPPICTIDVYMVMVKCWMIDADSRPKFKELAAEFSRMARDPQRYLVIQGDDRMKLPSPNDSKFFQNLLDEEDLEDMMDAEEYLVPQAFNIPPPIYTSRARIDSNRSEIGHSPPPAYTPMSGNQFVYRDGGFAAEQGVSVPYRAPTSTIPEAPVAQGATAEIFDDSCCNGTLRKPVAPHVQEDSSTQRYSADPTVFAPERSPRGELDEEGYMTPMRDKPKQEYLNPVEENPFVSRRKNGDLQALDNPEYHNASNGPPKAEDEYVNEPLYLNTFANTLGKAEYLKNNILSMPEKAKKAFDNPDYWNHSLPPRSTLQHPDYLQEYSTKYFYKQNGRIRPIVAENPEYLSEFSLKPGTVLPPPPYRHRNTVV

[8] = target: Cyclin-dependent kinase 19 (Homo sapiens) (UniProt Q9BWU1); conditions: Compound concentration 1000.0 nM
[9] = tested on: Phosphatidylinositol 4,5-bisphosphate 3-kinase catalytic subunit alpha isoform (Homo sapiens), P42336 [E545A]; conditions: Compound concentration 1000.0 nM
[10] = tested on: Epidermal growth factor receptor (Homo sapiens), P00533 [L861Q]; conditions: Compound concentration 1000.0 nM
[11] = target: Serine/threonine-protein kinase PAK 3 (Homo sapiens) (UniProt O75914); conditions: Compound concentration 1000.0 nM
[12] = target: Mitogen-activated protein kinase 10 (Homo sapiens) (UniProt P53779); conditions: Compound concentration 1000.0 nM
[13] = target: Interleukin-1 receptor-associated kinase 3 (Homo sapiens) (UniProt Q9Y616); conditions: Compound concentration 1000.0 nM
[14] = target: Mitogen-activated protein kinase 7 (Homo sapiens) (UniProt Q13164); conditions: Compound concentration 1000.0 nM
[15] = target: Casein kinase II subunit alpha' (Homo sapiens) (UniProt P19784); conditions: Compound concentration 1000.0 nM
[16] = target: Phosphatidylinositol 4,5-bisphosphate 3-kinase catalytic subunit delta isoform (Homo sapiens) (UniProt O00329); conditions: Compound concentration 1000.0 nM
[17] = target: Mitogen-activated protein kinase kinase kinase 5 (Homo sapiens) (UniProt Q99683); conditions: Compound concentration 1000.0 nM
[18] = target: NUAK family SNF1-like kinase 2 (Homo sapiens) (UniProt Q9H093); conditions: Compound concentration 1000.0 nM
[19] = target: Casein kinase II subunit alpha (Homo sapiens) (UniProt P68400); conditions: Compound concentration 1000.0 nM
[20] = target: Ephrin type-A receptor 2 (Homo sapiens) (UniProt P29317); conditions: Compound concentration 1000.0 nM
Sequence of Ephrin type-A receptor 2 (Homo sapiens) (P29317 whole entry): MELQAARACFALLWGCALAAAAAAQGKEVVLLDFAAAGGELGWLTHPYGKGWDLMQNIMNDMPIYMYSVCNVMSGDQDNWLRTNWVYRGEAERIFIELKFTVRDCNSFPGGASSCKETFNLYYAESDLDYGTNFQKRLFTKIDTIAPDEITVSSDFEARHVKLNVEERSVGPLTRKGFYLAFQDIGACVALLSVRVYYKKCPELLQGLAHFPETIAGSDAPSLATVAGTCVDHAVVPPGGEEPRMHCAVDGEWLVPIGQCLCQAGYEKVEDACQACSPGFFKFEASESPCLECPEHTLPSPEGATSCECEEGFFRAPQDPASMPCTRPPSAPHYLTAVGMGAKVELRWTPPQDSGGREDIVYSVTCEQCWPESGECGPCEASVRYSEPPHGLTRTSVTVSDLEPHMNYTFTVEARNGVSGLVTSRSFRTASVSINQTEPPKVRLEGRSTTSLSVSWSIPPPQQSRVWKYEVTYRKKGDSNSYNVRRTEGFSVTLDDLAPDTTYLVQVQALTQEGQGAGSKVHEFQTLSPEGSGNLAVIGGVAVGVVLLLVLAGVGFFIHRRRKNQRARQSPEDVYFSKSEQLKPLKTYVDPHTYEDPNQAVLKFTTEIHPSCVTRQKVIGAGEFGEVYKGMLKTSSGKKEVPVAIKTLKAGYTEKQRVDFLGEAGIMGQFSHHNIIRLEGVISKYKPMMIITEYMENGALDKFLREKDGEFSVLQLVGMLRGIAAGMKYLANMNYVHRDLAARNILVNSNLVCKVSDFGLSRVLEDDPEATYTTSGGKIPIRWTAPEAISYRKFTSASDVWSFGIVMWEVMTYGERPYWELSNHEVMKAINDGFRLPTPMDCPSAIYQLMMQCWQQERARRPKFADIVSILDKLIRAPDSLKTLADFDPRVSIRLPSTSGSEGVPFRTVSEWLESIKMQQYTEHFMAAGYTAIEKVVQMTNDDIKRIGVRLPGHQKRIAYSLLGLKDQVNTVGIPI

[21] = target: Dual specificity protein kinase CLK3 (Homo sapiens) (UniProt P49761); conditions: Compound concentration 1000.0 nM
[22] = target: Serine/threonine-protein kinase PAK 2 (Homo sapiens) (UniProt Q13177); conditions: Compound concentration 1000.0 nM
[23] = target: Ephrin type-A receptor 3 (Homo sapiens) (UniProt P29320); conditions: Compound concentration 1000.0 nM
[24] = tested on: Receptor-type tyrosine-protein kinase FLT3 (Homo sapiens), P36888 [UNDEFINED MUTATION]; conditions: Compound concentration 1000.0 nM
[25] = target: Ephrin type-B receptor 6 (Homo sapiens) (UniProt O15197); conditions: Compound concentration 1000.0 nM
[26] = target: Dual specificity mitogen-activated protein kinase kinase 3 (Homo sapiens) (UniProt P46734); conditions: Compound concentration 1000.0 nM
Sequence of Dual specificity mitogen-activated protein kinase kinase 3 (Homo sapiens) (P46734 whole entry): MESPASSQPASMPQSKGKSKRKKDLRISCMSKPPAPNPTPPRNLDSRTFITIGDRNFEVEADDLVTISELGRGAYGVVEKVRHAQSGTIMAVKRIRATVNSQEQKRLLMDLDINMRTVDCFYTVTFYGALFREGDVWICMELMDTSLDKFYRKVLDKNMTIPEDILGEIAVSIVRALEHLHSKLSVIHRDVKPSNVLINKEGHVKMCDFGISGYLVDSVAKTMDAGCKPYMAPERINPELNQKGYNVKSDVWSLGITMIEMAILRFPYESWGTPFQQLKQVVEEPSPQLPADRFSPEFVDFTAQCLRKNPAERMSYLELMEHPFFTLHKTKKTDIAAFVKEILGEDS

[27] = target: Ephrin type-A receptor 7 (Homo sapiens) (UniProt Q15375); conditions: Compound concentration 1000.0 nM
[28] = target: Dual specificity protein kinase CLK1 (Homo sapiens) (UniProt P49759); conditions: Compound concentration 1000.0 nM
[29] = target: Fibroblast growth factor receptor 1 (Homo sapiens) (UniProt P11362); conditions: Compound concentration 1000.0 nM
[30] = target: Platelet-derived growth factor receptor alpha (Homo sapiens) (UniProt P16234); conditions: Compound concentration 1000.0 nM
[31] = tested on: Epidermal growth factor receptor (Homo sapiens), P00533 [UNDEFINED MUTATION]; conditions: Compound concentration 1000.0 nM
[32] = target: 1-phosphatidylinositol 3-phosphate 5-kinase (Homo sapiens) (UniProt Q9Y2I7); conditions: Compound concentration 1000.0 nM
[33] = target: Activin receptor type-2A (Homo sapiens) (UniProt P27037); conditions: Compound concentration 1000.0 nM
[34] = target: Serine/threonine-protein kinase Nek2 (Homo sapiens) (UniProt P51955); conditions: Compound concentration 1000.0 nM
[35] = target: Cyclin-dependent kinase 16 (Homo sapiens) (UniProt Q00536); conditions: Compound concentration 1000.0 nM
[36] = target: Tyrosine-protein kinase Fes/Fps (Homo sapiens) (UniProt P07332); conditions: Compound concentration 1000.0 nM
Sequence of Tyrosine-protein kinase Fes/Fps (Homo sapiens) (P07332 whole entry): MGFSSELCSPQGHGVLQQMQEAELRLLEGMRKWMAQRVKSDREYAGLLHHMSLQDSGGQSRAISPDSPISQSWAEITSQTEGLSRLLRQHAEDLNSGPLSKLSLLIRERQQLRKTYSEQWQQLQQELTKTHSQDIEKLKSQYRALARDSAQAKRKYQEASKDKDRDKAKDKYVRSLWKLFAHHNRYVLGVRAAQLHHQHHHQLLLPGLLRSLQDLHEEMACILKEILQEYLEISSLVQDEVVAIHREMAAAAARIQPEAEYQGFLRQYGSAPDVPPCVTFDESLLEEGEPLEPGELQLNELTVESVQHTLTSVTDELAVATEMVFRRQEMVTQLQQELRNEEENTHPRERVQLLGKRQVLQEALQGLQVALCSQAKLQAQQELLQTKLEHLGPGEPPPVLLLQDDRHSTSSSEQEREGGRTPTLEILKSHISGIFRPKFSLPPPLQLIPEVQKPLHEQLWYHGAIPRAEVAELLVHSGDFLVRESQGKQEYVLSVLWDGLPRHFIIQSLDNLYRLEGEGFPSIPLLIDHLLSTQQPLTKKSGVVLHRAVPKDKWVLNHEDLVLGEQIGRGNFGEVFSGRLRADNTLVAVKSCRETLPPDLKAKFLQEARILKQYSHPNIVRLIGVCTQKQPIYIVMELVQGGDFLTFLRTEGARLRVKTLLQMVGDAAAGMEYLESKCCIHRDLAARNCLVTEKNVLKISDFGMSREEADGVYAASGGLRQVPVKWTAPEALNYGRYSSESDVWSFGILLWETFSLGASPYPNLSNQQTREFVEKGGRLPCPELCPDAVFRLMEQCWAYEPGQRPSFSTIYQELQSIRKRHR

[37] = target: Ephrin type-A receptor 6 (Homo sapiens) (UniProt Q9UF33); conditions: Compound concentration 1000.0 nM
[38] = tested on: Epidermal growth factor receptor (Homo sapiens), P00533 [UNDEFINED MUTATION]; conditions: Compound concentration 1000.0 nM; remark: listed apart in the source
[39] = target: Tyrosine-protein kinase ITK/TSK (Homo sapiens) (UniProt Q08881); conditions: Compound concentration 1000.0 nM
[40] = target: Mitogen-activated protein kinase kinase kinase 11 (Homo sapiens) (UniProt Q16584); conditions: Compound concentration 1000.0 nM
Sequence of Mitogen-activated protein kinase kinase kinase 11 (Homo sapiens) (Q16584 whole entry, looked up): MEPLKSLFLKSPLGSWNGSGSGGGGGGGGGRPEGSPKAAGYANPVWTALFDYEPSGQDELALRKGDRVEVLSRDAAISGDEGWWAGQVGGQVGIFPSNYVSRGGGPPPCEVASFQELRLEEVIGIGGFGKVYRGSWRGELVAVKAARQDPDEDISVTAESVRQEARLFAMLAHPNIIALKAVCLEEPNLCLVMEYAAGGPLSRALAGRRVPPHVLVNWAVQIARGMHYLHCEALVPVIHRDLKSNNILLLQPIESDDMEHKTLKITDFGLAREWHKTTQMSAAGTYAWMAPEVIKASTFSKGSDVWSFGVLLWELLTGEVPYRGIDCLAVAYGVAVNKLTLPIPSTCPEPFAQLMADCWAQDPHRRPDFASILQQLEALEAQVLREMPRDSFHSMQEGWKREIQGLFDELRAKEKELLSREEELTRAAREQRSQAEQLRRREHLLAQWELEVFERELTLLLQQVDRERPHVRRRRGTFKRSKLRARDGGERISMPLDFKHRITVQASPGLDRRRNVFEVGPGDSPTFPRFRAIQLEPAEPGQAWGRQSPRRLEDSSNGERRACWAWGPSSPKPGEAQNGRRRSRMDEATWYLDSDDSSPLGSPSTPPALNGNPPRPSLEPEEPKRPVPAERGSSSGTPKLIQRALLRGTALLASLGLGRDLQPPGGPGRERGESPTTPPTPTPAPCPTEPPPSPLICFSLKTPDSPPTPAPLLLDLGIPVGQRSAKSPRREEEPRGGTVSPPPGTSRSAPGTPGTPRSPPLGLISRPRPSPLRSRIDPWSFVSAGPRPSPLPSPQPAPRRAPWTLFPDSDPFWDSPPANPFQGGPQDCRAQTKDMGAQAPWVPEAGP

[41] = target: Follicle-stimulating hormone receptor (Homo sapiens, UniProt P23945); assay: Cell-based assay (FSH Antagonism)
Sequence of Follicle-stimulating hormone receptor (P23945 whole entry): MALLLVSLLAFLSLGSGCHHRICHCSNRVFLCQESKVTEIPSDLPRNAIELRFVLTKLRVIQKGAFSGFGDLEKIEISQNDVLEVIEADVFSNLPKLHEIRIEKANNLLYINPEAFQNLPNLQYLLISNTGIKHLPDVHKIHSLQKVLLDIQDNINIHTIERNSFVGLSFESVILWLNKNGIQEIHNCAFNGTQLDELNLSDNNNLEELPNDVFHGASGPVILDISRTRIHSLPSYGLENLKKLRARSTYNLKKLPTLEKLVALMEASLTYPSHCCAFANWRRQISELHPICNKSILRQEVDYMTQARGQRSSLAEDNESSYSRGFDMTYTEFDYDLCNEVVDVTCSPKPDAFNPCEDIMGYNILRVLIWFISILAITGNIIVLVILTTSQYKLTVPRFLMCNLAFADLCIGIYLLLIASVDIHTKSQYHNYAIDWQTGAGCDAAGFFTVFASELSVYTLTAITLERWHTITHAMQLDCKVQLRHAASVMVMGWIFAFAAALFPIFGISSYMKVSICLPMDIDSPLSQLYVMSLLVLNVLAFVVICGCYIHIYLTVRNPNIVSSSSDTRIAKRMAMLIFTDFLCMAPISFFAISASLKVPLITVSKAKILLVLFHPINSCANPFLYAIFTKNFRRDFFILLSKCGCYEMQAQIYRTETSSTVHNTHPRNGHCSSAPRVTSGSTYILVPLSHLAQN

[42] = target: Tyrosine-protein kinase ZAP-70 (Homo sapiens) (UniProt P43403); conditions: Compound concentration 1000.0 nM
[43] = target: Alpha-2C adrenergic receptor (Homo sapiens) (UniProt P18825); conditions: Compound concentration 10.0 uM
[44] = target: Cyclin-dependent kinase 2 (Homo sapiens) (UniProt P24941); conditions: Compound concentration 1000.0 nM
[45] = target: Serine/threonine-protein kinase 17A (Homo sapiens) (UniProt Q9UEE5); conditions: Compound concentration 1000.0 nM

O=C(Nc1ccc(Oc2ccc(F)cc2)cc1)N1CCc2ncccc2[C@H]1c1ccc(F)cc1 [BAY-897]
residual activity [1]: 90% | residual activity [2]: 96% | residual activity [3]: 86% | residual activity [4]: 76% | residual activity [5]: 95% | residual activity [6]: 88% | residual activity [7]: 82% | residual activity [8]: 79% | residual activity [9]: 100% | residual activity [10]: 83% | residual activity [11]: 100% | residual activity [12]: 82% | residual activity [13]: 100% | residual activity [14]: 96% | residual activity [15]: 100% | residual activity [16]: 93% | residual activity [17]: 87% | residual activity [18]: 82% | residual activity [19]: 99% | residual activity [20]: 100% | residual activity [21]: 82% | residual activity [22]: 52% | residual activity [23]: 91% | residual activity [24]: 99% | residual activity [25]: 70% | residual activity [26]: 88% | residual activity [27]: 90% | residual activity [28]: 86% | residual activity [29]: 100% | residual activity [30]: 95% | residual activity [31]: 92% | residual activity [32]: 95% | residual activity [33]: 100% | residual activity [34]: 93% | residual activity [35]: 65% | residual activity [36]: 100% | residual activity [37]: 100% | residual activity [38]: 80% | residual activity [39]: 96% | residual activity [40]: 78% | IC50 [41]: > 16 µM (not active) | residual activity [42]: 91% | inhibition [43]: 8.47% | residual activity [44]: 90% | residual activity [45]: 86%

O=C(Nc1cnc(Oc2ccc(F)cc2)nc1)N1CCc2ncccc2[C@@H]1c1ccc(F)cc1 [BAY-899]
residual activity [1]: 91% | residual activity [2]: 100% | residual activity [3]: 83% | residual activity [4]: 75% | residual activity [5]: 86% | residual activity [6]: 79% | residual activity [7]: 97% | residual activity [8]: 75% | residual activity [9]: 98% | residual activity [10]: 85% | residual activity [11]: 100% | residual activity [12]: 88% | residual activity [13]: 100% | residual activity [14]: 96% | residual activity [15]: 100% | residual activity [16]: 100% | residual activity [17]: 84% | residual activity [18]: 100% | residual activity [19]: 93% | residual activity [20]: 99% | residual activity [21]: 88% | residual activity [22]: 59% | residual activity [23]: 82% | residual activity [24]: 92% | residual activity [25]: 100% | residual activity [26]: 76% | residual activity [27]: 88% | residual activity [28]: 80% | residual activity [29]: 82% | residual activity [30]: 93% | residual activity [31]: 86% | residual activity [32]: 63% | residual activity [33]: 83% | residual activity [34]: 92% | residual activity [35]: 75% | residual activity [36]: 100% | residual activity [37]: 100% | residual activity [38]: 70% | residual activity [39]: 90% | residual activity [40]: 83% | IC50 [41]: > 16 µM (not active) | residual activity [42]: 93% | inhibition [43]: 8.55% | residual activity [44]: 100% | residual activity [45]: 85%
